From ChEMBL document CHEMBL5344478, “Cytochrome bd oxidase: an emerging anti-tubercular drug target” (RSC Med Chem, 2024)
pIC50: −log10 of the molar value. Values after ≈ are worked out from the molar mass of the structure shown.

Columns and labels:
[1] = system: Mycobacterium tuberculosis; test: Inhibition of wild type Mycobacterium tuberculosis mc2 6020 cytochrome bd oxidase assessed as inhibition of oxygen consumption rate at 10 to 25 uM measured after 5 days by Methylene blue dye based assay; conditions: dose 10-25 µM, time 5.0 day
[2] = system: Mycobacterium tuberculosis; test: Antibacterial activity against Mycobacterium tuberculosis H37Rv assessed as inhibition of bacterial growth; type: functional
[3] = system: Mycobacterium tuberculosis; test: Antitubercular activity against Mycobacterium tuberculosis H37Rv assessed as inhibition of bacterial growth; type: functional
[4] = system: Mycobacterium tuberculosis; test: Antibacterial activity against Mycobacterium tuberculosis H37Rv cytochrome bd oxidase assessed as reduction in total cellular ATP level; type: functional, organism-based
[5] = Half life in mouse; type: ADME, organism-based; conditions: in vivo
[6] = system: Mycobacterium tuberculosis; test: Antitubercular activity against XDR Mycobacterium tuberculosis assessed as bacterial growth inhibition; type: functional
[7] = Oral bioavailability in mouse; type: ADME, organism-based; conditions: in vivo
[8] = system: Mycobacterium tuberculosis; test: Antibacterial activity against Mycobacterium tuberculosis clinical isolate N0145 assessed as reduction in ATP level; type: functional, organism-based
[9] = system: Mycobacterium tuberculosis; test: Antibacterial activity against Mycobacterium tuberculosis H37Rv assessed as reduction in bacterial growth; type: functional, organism-based
[10] = system: Mycobacterium tuberculosis; test: Antibacterial activity against Mycobacterium tuberculosis clinical isolate N0145 assessed as reduction in bacterial growth; type: functional, organism-based
[11] = system: Mycobacterium tuberculosis; test: Antimycobacterial activity against Mycobacterium tuberculosis Rv0678; type: functional
[12] = system: Mycobacterium tuberculosis; test: Antibacterial activity against Mycobacterium tuberculosis H37Rv mc2 6206 assessed as inhibition of bacterial growth by resazurin dye based assay; type: functional
[13] = system: Mycobacterium tuberculosis; test: Antibacterial activity against Mycobacterium tuberculosis H37Rv assessed as reduction in bacterial growth incubated for 7 days by broth dilution method; type: functional; conditions: 168 h, time 7 day

SMILES: CC(C)=CCC/C(C)=C/CC/C(C)=C/Cc1c(C)[nH]c2ccccc2c1=O [AURACHIN D]
- inhibition [1]: 60%
- MIC [2]: > 100 µg/mL
- MIC [3]: > 100 µg/mL

SMILES: FC(F)(F)c1ccc(Oc2ccc(Nc3ncnc4ccccc34)cc2)cc1
- pIC50 [4]: 5.55
- half-life [5]: 64 h
- MIC [6]: ≤ 1 µM
- bioavailability [7]: 58%

SMILES: CCc1nc2ccc(Cl)cn2c1C(=O)NCc1ccc(N2CCC(c3ccc(OC(F)(F)F)cc3)CC2)cc1 [TELACEBEC]
- inhibition [1]: 60%
- pIC50 [8]: 7.00
- MIC [3]: 0.0015 µM

SMILES: CC(C)(C)c1ccc(CCNc2ncnc3ccccc23)cc1
- pIC50 [9]: 5.24
- pIC50 [10]: 7.00

SMILES: Fc1ccc2c(NCCc3ccc(OC(F)(F)F)cc3)ncnc2c1
- pIC50 [9]: 5.12
- pIC50 [10]: 6.70

SMILES: NC(=O)NC(=O)c1nc(-c2cc3ccccc3o2)c(N)nc1N
- MIC [11]: 12 µM (≈ 3.75 µg/mL)
- MIC [12]: 9 µM (≈ 2.81 µg/mL)
- MIC [13]: 4 µM (≈ 1.25 µg/mL)

SMILES: CC(C)(C)c1ccc(CCNc2ncnc3ccsc23)cc1
- pIC50 [9]: 5.24
- pIC50 [10]: 5.07
